Assay results reported in BindingDB's records for doi:10.3109/14756360903169592 (Ufr Des Sciences Pharmaceutiques Et Ingenierie De La Sante, 2010).

Target: T1, Protein farnesyltransferase subunit beta/geranylgeranyltransferase type-1 subunit alpha (Saccharomyces cerevisiae (strain ATCC 204508 / S288c), UniProt P22007+P29703)
T1 sequence (P22007 whole entry): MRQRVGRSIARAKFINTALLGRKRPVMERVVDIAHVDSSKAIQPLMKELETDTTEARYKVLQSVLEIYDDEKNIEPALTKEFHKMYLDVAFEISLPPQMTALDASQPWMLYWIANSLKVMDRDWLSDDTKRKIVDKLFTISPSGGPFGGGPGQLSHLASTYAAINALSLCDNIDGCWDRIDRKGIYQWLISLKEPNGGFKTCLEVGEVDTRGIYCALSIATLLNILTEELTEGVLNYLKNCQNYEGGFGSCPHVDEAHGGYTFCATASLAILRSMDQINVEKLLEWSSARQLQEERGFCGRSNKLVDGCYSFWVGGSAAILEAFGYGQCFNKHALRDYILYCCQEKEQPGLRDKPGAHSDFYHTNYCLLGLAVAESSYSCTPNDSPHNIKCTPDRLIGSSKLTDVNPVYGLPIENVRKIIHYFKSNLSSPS
T1 sequence (P29703 whole entry): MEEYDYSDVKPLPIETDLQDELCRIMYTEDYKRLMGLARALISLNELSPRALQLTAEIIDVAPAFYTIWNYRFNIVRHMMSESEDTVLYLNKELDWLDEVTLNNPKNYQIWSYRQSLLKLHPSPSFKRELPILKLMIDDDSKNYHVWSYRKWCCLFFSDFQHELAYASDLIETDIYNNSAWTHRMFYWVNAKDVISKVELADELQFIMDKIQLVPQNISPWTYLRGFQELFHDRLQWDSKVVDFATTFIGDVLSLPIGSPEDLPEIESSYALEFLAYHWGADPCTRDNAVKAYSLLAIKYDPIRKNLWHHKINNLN
Assay: Fluorescence-Based PFTase Inhibition Assay
Conditions: pH 7.5; 30 °C
Experimental: Assays were realized on 96-well plates, prepared with Biomek NKMC and Biomek 3000 from Beckman Coulter and read on a Wallac Victor fluorimeter from PerkinElmer. Per well, 20 μL of farnesyl pyrophosphate (10 μM) was added to 180 μL of a solution containing 2 μL of varied concentrations of tested compounds (dissolved in methanol) and 178 μL of a solution composed by 0.1 mL of partially purified recombinant yeast FTase (2.2mg/mL) and 7.0 mL of Dansyl-GCVLS peptide (in the following buffer: 5.8 mM DTT, 12 mM MgCl2, 12 μM ZnCl2, and 0.09% (w/v) CHAPS, 53 mM Tris/HCl, pH 7.5). Then the fluorescence development was recorded for 15 min (0.7 s per well, 20 repeats) at 30°C with an excitation filter at 340 nm and an emission filter at 486 nm.

Structure (SMILES)	IC50 [µM]
CC(=O)OC(C)/C=C/C1=CC[C@H]2[C@H](C[C@@H]1C)OC(=O)[C@@H]2C (stereo partly drawn) [2,3-(E)-Dehydro-4-epi-isoxanthanol (9)]	900
C=C1C(=O)O[C@H]2C[C@H](C)c3cc(C(C)=O)oc3C[C@H]12 [3,5-Oxyxanthatin (7)]	> 1000
CC(O)CCC1=CC[C@@H]2C(C)C(=O)O[C@H]2C[C@@H]1C (stereo partly specified) [4,11,13-Tetrahydroxanthinosin (14)]	> 1000
CC(O)/C=C/C1=CC[C@H]2[C@H](C[C@@H]1C)OC(=O)[C@@H]2C (stereo partly drawn) [4,11β,13-Tetrahydroxanthatin (8)]	> 1000
C/C=C(/C)C(=O)O[C@H]1[C@H]2[C@H](C)C(=O)O[C@@H]2C[C@@H](C)[C@@H]2C=CC(=O)[C@]21C [6-O-angeloylprenolin]	18.8
C=C1C(=O)O[C@@H]2C[C@H](C)[C@]3(/C=C/C(C)=O)O[C@@H]3C[C@H]12 [8-Epi-xanthatin-1,5α-epoxide]	58
C=C1C(=O)O[C@@H]2C[C@H](C)C(/C=C/C(C)=O)=CC[C@H]12 [8-Epi-xanthatin]	64
CC(=O)CCC1=CC[C@@H]2C(C)C(=O)O[C@H]2C[C@@H]1C (stereo partly specified) [11,13-Dihydroxanthinosin (13)]	240
CC(=O)OC(CC(C)O)C1=CC[C@H]2[C@H](C[C@@H]1C)OC(=O)[C@@H]2C (stereo partly drawn) [11β,13-Dihydro-4-epi-isoxanthanol (16)]	633
CC(=O)/C=C/C1=CC[C@H]2[C@H](C[C@@H]1C)OC(=O)[C@@H]2C [11β,13-Dihydroxanthatin (10)]	210
CC(=O)/C=C/[C@@]12O[C@@H]1C[C@H]1[C@H](C[C@@H]2C)OC(=O)[C@@H]1C [11β,13-Dihydroxanthatin-1,5α-epoxide (11)]	90
CC(=O)/C=C/[C@]12O[C@H]1C[C@H]1[C@H](C[C@@H]2C)OC(=O)[C@@H]1C [11β,13-Dihydroxanthatin-1,5β-epoxide (12)]	66
C=C1C(=O)O[C@H]2C[C@H](C)C(C(CC(C)OC(C)=O)OC(C)=O)=CC[C@H]12 (stereo partly drawn) [Acetyl-4-epi-isoxanthanol (6)]	40
CC(=O)OC(C)CC(OC(C)=O)C1=CC[C@H]2[C@H](C[C@@H]1C)OC(=O)[C@@H]2C (stereo partly drawn) [Acetyl-11β,13-dihydro-4-epi-isoxanthanol (15)]	40
C=C1C(=O)O[C@@H]2C3C4(C=C[C@@]3(C)C3(C4)C(=O)O[C@@H]4[C@H]5C(C)=CC(=O)[C@H]5[C@@H](C)C[C@H](OC(=O)/C(C)=C\C)[C@H]43)[C@](C)(O)CC[C@@H]12 (stereo partly specified) [Arteminolide C']	0.95
C/C=C(/C)C(=O)O[C@H]1C[C@H](C)[C@@H]2C(=O)C=C(C)[C@@H]2[C@H]2OC(=O)C3(CC45C=C[C@]3(C)C4[C@H]3OC(=O)C(C)[C@@H]3CC[C@@]5(C)O)[C@@H]21 (stereo partly specified) [Arteminolide C]	1
C=C1C(=O)O[C@H]2C[C@H](C)C(/C=C/C(C)=O)=CC[C@H]12 [Xanthatin (2)]	100
C=C1C(=O)O[C@H]2C[C@H](C)[C@]3(/C=C/C(C)=O)O[C@@H]3C[C@H]12 [Xanthatin-1,5α-epoxide (5)]	100
C=C1C(=O)O[C@H]2C[C@H](C)[C@@]3(/C=C/C(C)=O)O[C@H]3C[C@H]12 [Xanthatin-1,5β-epoxide (4)]	500
C=C1C(=O)O[C@H]2C[C@H](C)C(C(CC(C)=O)OC(C)=O)=CC[C@H]12 (stereo partly drawn) [α-Methylene-γ-lactone, 1]	150
C=C1C(=O)O[C@H]2C[C@H](C)C(C(CC(C)O)OC(C)=O)=CC[C@H]12 (stereo partly drawn) [α-Methylene-γ-lactone, 3]	> 1000
